Here are results for 17 compounds from patent publication US20120214846A1, “HEXAHYDROCYCLOPENTYL[F]INDAZOLE PYRIDYL ETHANOLS AND DERIVATIVES THEREOF AS SELECTIVE GLUCOCORTICOID RECEPTOR MODULATORS” (MERCK SHARP & DOHME CORP, priority 2009, published 2012).

One data set has as its target T1, GR (Homo sapiens, UniProt P04150).
T1 sequence (P04150 1-777): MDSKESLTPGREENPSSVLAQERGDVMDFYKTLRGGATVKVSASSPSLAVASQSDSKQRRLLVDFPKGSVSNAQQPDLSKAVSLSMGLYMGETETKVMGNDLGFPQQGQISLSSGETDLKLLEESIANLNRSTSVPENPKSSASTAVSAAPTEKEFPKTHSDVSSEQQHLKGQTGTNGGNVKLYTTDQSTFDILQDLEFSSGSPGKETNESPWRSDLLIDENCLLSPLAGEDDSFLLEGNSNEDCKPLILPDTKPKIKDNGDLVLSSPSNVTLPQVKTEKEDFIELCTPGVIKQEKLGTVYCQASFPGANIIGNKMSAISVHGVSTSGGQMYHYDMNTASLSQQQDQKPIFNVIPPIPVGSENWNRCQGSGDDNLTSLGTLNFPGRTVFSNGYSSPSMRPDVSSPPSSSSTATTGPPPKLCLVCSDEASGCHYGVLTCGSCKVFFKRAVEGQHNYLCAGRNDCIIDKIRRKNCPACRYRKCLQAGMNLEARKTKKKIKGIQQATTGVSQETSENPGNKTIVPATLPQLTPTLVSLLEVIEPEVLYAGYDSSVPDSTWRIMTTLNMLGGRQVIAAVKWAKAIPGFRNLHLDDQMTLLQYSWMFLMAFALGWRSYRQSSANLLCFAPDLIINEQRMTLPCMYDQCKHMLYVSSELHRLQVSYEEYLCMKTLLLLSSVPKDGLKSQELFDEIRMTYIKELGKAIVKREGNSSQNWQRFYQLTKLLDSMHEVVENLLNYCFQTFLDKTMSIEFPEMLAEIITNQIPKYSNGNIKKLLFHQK
The data set is described as follows: Trans-Activation Modulation of Glucocorticoid Receptor Assay (GRAMMER), MMTV-LUC reporter, A549 cells. Further details: endogenous in cells. Type of data set: cell-based. An excerpt: Trans-Activation Modulation of Glucocorticoid Receptor Assay
This assay assesses the ability of test compounds to control transcription from the MMTV-LUC reporter gene in lung adenocarcinoma A549 cells or HeLa cells, a human […] cell line that naturally expresses the human GR. The assay measures induction of a modified MMTV LTR/promoter linked to the LUC reporter gene.
The routine transient assay consists of plating 7,000-25,000 cells/well of a white, clear-bottom 96-well plate. Alternatively, 384-well plates can be used at a cell concentration of 10,000/well. The media that the cells are plated in is “exponential growth medium” which consists of phenol red-free RPMI1640 containing 10% FBS, 4 mM L-glutamine, 20 mM HEPES, 10 ug/mL human insulin, and 20 ug/mL gentamicin. Incubator conditions are 37° C. and 5% CO2. The transfection is done in batch mode. The cells are trypsinized and counted to the right cell number in the proper amount of fresh media. It is then gently mixed with the FuGene6/DNA mix and plated onto the 96 or 384-well plate, all the wells receive 100 uL or 40 uL, respectively, of medium+lipid/DNA complex then incubated 37° C. overnight. The transfection cocktail consists of serum-free OptiMEM, FuGene6 reagent and DNA. The manufacturer's (Roche Biochemical) protocol for cocktail setup is as follows: The lipid to DNA ratio is approximately 2.5:1 and the incubation time is 20 min at room temperature. Sixteen to 24 hours after transfection, the cells are treated with dexamethasone to a final concentration of 10 nM as well as the compound of interest, such that final DMSO (vehicle) concentration is equal to or less than 1%. Each plate also contains samples that are treated with 10 nM dexamethasone alone, which is used as the 100% activity control. The cells are exposed to the compounds for 24 hours. After 24 hours, the cells are lysed by a Promega cell culture lysis buffer for approximately 30 min and then the luciferase activity in the extracts is assayed in the 96-well format luminometer. In 384-well format, Steady-Glo (Promega) or Steady-Lite (PerkinElmer) can be used by adding an equal volume of reagent to the media present in each well. […] Antagonist activity is calculated by determining the decrease in dexamethasone-induced activity in response to compound treatment relative to samples that were treated with dexamethasone alone. […] This transactivation assay can be performed in an agonist and antagonist mode to identify these different activities.
The action of compounds is also tested in an antagonist mode (Anti-GRAMMER) in which the cells are treated with medium containing an agonist such as 10 nM DEX and the ability to agents to inhibit the activation by an agonist is measured.

The test system of data set [1] is female Sprague-Dawley rats, oxazolone (OX) contact dermatitis. The data set is described as follows: In Vivo Inflammation Assay (oxazolone contact dermatitis model). The following applies: for Inflammation Assay Glucose Effect / Inflammation Assay Anti-inflammatory Effect: rat; for Inflammation Assay Glucose Effect: glucose level compared to vehicle; for Inflammation Assay Anti-inflammatory Effect: relative to control compound; for GL *: Table 4, literature compounds, glucose effect. Further details: key to Inflammation Assay Glucose Effect / GL *: +: the glucose level increased compared to vehicle; −: the glucose level decreased compared to vehicle. How it is done: In Vivo Inflammation Assay
Intact adult (6 month old) female Sprague-Dawley rats are used in the oxazolone (OX) contactdermatitis model. Rats were sensitized on the ventral abdomen with OX on Day 0. On Days 7 and 9, a randomly-selected ear was challenged (same ear each time) with OX; the other was treated with vehicle. Daily treatment begun on Day 7 and continued for 7d with test compounds at different doses and 1.3 mpk 6-methlyprednisolone or 0.1 mpk DEX as positive controls. The thickness of both ears are measured on Days 11 and 14. Necropsy occurred on Day 14. The rat is first weighed, then anesthetized in a CO2 chamber until near death. Approximately 5 ml whole blood is obtained by cardiac puncture. The rat is then examined for certain signs of death and completeness. Tissues are dissected in a highly stylized fashion. Then the following endpoints were evaluated: a) inhibiting ear inflammation induced by oxazalone, b) raising serum insulin, c) reducing serum ACTH, d) reducing spleen weight, e) reducing skin thickness, f) reducing body weight, g) increasing expression of bone-related genes with potential relationship to negative glucocorticoid effects on bone; e) changes in molecular markers that correlate with skin inflammation, skin thinning, muscle atrophy and glucose metabolism in liver. All blood samples were collected between 1330-1530 hours, ˜4-5 hrs after the last compound treatment.
Primary data for this assay are left and right ear thickness. Inter-ear thickness difference (etd) is used for the estimating the level of inflammation and effectiveness of the compounds is determined by their ability to reduce the increase the thickness of the inflamed ear. Back of the rat skin thickness, spleen weight, serum insulin as well as the effects of gcs on the expression of molecular markers in skin inflammation, skin atrophy, muscle atrophy and glucose metabolism in liver are measured. Data are analyzed by anova plus fisher plsd post-hoc test to identify intergroup differences.

[2] abbreviates: A549 cells, inflection point, read-out: Transactivation A549 Cells GRAMMER IP.
[3] abbreviates: A549 cells, relative to 300 nM dexamethasone.
Where [4] appears, read: A549, A549 cells, relative to 300 nM dexamethasone, read-out: Transactivation A549 Cells GRAMMER Emax.
[5] abbreviates: A549, Table 4, literature compounds, read-out: GRAMMER EMAX.
Where [6] appears, read: Table 4, literature compounds, read-out: GRAMMER IP.

Structures are written as SMILES. Read-outs that look alike come from different tables or passages of the source.

Turning to `Cc1cccnc1C(O)C[C@]1(O)CCC2=Cc3c(cnn3-c3ccc(F)cc3)C[C@@]21C` (single isomer, unassigned) [Example 1a], the EC50 at GR (setting [2]) came to 116 nM. The “Transactivation A549 Cells GRAMMER Emax” value at GR (setting [3]) came out at 64.8%. In data set [1], the “Inflammation Assay Glucose Effect” value is reported as “−” and the “Inflammation Assay Anti-inflammatory Effect” value was “+ (the anti-inflammatory activity was equal to or greater than 40% of the effect generated by the control compound)”.
With `Cc1cccnc1C(O)C[C@]1(O)CCC2=Cc3c(cnn3-c3ccc(F)cc3)C[C@@]21C` (single isomer, unassigned) [Example 1b], the EC50 at GR (setting [2]) is 236 nM. The “Transactivation A549 Cells GRAMMER Emax” value on GR (setting [3]) was found to be 27.4%. Besides, the “Inflammation Assay Glucose Effect” value in data set [1] is on record as “+”.
For orientation: Emax means the greatest response seen or fitted, relative to the assay's reference. Regarding `C[C@]12Cc3cnn(-c4ccc(F)cc4)c3C=C1CC[C@@]2(O)CC(O)c1ccccn1` (single isomer, unassigned) [Example 2a], the Emax on GR (setting [4]) turned out to be 23.1%. The EC50 on GR (setting [2]) was found to be 346 nM. For the same compound, in data set [1], the “Inflammation Assay Glucose Effect” value was “−” and the “Inflammation Assay Anti-inflammatory Effect” value is listed as “+ (the anti-inflammatory activity was equal to or greater than 40% of the effect generated by the control compound)”.
Take `C[C@]12Cc3cnn(-c4ccc(F)cc4)c3C=C1CC[C@@]2(O)CC(O)c1ccccn1` (single isomer, unassigned) [Example 2b]: the EC50 on GR (setting [2]) amounted to 255 nM. The “Transactivation A549 Cells GRAMMER Emax” value on GR (setting [3]) is on record as 26.8%. Also, in data set [1], the “Inflammation Assay Glucose Effect” value is on record as “−” and the “Inflammation Assay Anti-inflammatory Effect” value is recorded as “+ (the anti-inflammatory activity was equal to or greater than 40% of the effect generated by the control compound)”.
For `C[C@]12Cc3cnn(-c4ccc(F)cc4)c3C=C1CC[C@@]2(O)CC(O)c1cc(C(F)(F)F)ccn1` (single isomer, unassigned) [Example 5a], the Emax at GR (setting [4]) is 15.1%. The EC50 at GR (setting [2]) was determined as 52.1 nM.
For `C[C@]12Cc3cnn(-c4ccc(F)cc4)c3C=C1CC[C@@]2(O)CC(O)c1cc(C(F)(F)F)ccn1` (single isomer, unassigned) [Example 5b], the EC50 at GR (setting [2]) was found to be 158 nM. In addition, the “Transactivation A549 Cells GRAMMER Emax” value at GR (setting [3]) stood at 18.1%.
As for `C[C@]12Cc3cnn(-c4ccc(F)cc4)c3C=C1CC[C@@]2(O)CC(O)c1ccc(F)cn1` (single isomer, unassigned) [Example 7a], the Emax at GR (setting [4]) is 18.6%. Further, on GR (setting [2]), the EC50 was 320 nM.
In the case of `C[C@]12Cc3cnn(-c4ccc(F)cc4)c3C=C1CC[C@@]2(O)CC(O)c1ccc(F)cn1` (single isomer, unassigned) [Example 7b], the EC50 on GR (setting [2]) turned out to be 85.5 nM. Further, the “Transactivation A549 Cells GRAMMER Emax” value at GR (setting [3]) is recorded as 16.6%.
For the compound `C[C@]12Cc3cnn(-c4ccc(F)cc4)c3C=C1CC[C@@]2(O)CC(O)c1cc(Cl)ccn1` (single isomer, unassigned) [Example 8a], the Emax on GR (setting [4]) worked out at 21.4%. Further, at GR (setting [2]), the EC50 came to 129 nM. Moreover, in data set [1], the “Inflammation Assay Glucose Effect” value is recorded as “+” and the “Inflammation Assay Anti-inflammatory Effect” value is reported as “+ (the anti-inflammatory activity was equal to or greater than 40% of the effect generated by the control compound)”.
Turning to `C[C@]12Cc3cnn(-c4ccc(F)cc4)c3C=C1CC[C@@]2(O)CC(O)c1cc(Cl)ccn1` (single isomer, unassigned) [Example 8b], the EC50 at GR (setting [2]) stood at 26.7 nM. The “Transactivation A549 Cells GRAMMER Emax” value on GR (setting [3]) amounted to 25.2%. Further, in data set [1], the “Inflammation Assay Glucose Effect” value is on record as “+” and the “Inflammation Assay Anti-inflammatory Effect” value was “+ (the anti-inflammatory activity was equal to or greater than 40% of the effect generated by the control compound)”.
For the compound `C[C@]12Cc3cnn(-c4ccc(F)cc4)c3C=C1CC[C@@]2(O)CC(O)c1cc(Br)ccn1` (single isomer, unassigned) [Example 10a], the EC50 at GR (setting [2]) worked out at 17.4 nM. In addition, the “Transactivation A549 Cells GRAMMER Emax” value at GR (setting [3]) came to 8.2%.
In the same order, the values of `C[C@]12Cc3cnn(-c4ccc(F)cc4)c3C=C1CC[C@@]2(O)CC(O)c1cc(Br)ccn1` (single isomer, unassigned) [Example 10b] are 80 nM and 19.8%.
As for `C[C@]12Cc3cnn(-c4ccc(F)cc4)c3C=C1CC[C@@]2(O)C#Cc1ccccc1` [Ex. 1 WO 04/075840 A2, reference compound], the Emax on GR (setting [5]) worked out at 6.19%. Further, the EC50 on GR (setting [6]) came out at 385 nM. Moreover, the “GL *” value in data set [1] is “−”.
In the same order, the values of `C[C@]12Cc3cnn(-c4ccc(F)cc4)c3C=C1CCC[C@@H]2[C@@H](O)Cc1ccccc1` [Ex. 22 WO 03/086294 A2, reference compound] are 61%, 122 nM and “−”.
In the case of `C[C@]12Cc3cnn(-c4ccc(F)cc4)c3C=C1CCC[C@@H]2[C@@H](O)CCc1ccccc1` [Ex. 30 WO 03/086294 A2, reference compound], the Emax at GR (A549, read-out: GRAMMER EMAX) came out at 48.8%. Besides, the EC50 at GR (GRAMMER IP, Table 4, literature compounds) came to 166 nM. The “GL *” value in data set [1] was “−”.
As for `C[C@]12Cc3cnn(-c4ccc(F)cc4)c3C=C1CC[C@@]2(O)CC(O)c1ncccc1F` (stereo partly drawn) [Example 4, (4αS,5R)-1-(4-fluorophenyl)-5-[2-(3-fluoropyridin-2-yl)-2-hydroxyethyl]-4α-methyl-1,4,4α,5,6,7-hexahydrocyclopenta[f]indazol-5-ol], at GR (setting [4]), the Emax was 17.5%. At GR (setting [2]), the EC50 came out at 698 nM.
In the same order, the values of `C[C@]12Cc3cnn(-c4ccc(F)cc4)c3C=C1CC[C@@]2(O)CC(O)c1ccc(C(F)(F)F)cn1` (stereo partly drawn) [Example 6, (4αS,5R)-1-(4-fluorophenyl)-5-{2-hydroxy-2-[5-(trifluoromethyl)pyridin-2-yl]ethyl}-4α-methyl-1,4,4α,5,6,7-hexahydrocyclopenta[f]indazol-5-ol] are 18.6% and 328 nM.
